Assay results: ChEMBL document CHEMBL1130550, “Sch 207278: a novel farnesyl protein transferase inhibitor from an unidentified fungus” (Bioorg Med Chem Lett, 1997)

Assays:
[1] = Inhibition of Geranylgeranyl transferase type I; parameters: species or system Homo sapiens
[2] = target: Protein farnesyltransferase (Homo sapiens, UniProt P49354+P49356); assay: Inhibition of Farnesyltransferase; assay type: protein-complex assay

| IC50 [1] | IC50 [2] | SMILES |
| --- | --- | --- |
| 70 µM | 3.5 µM | O=Cc1cc(O)c(C=O)c(C(=O)c2cccc(O)c2O)c1 |
| 85 µM | 2.4 µM | CC(=O)Oc1cc(C=O)cc(C(=O)c2cccc(OC(C)=O)c2OC(C)=O)c1C=O |
